Test results as given in patent US20160303102A1, “PROCESS FOR THE PRODUCTION OF DRUG FORMULATIONS FOR ORAL ADMINISTRATION” (Alrise Biosystems GmbH, priority 2013, published 2016).
Values after ≈ are worked out from the molar mass of the structure shown. Where a name gives a salt, the structure may show the parent alone. Marks after values point to notes of the source that are not given here.

Columns and labels:
[1] = Solubility of exemplary therapeutic agents in organic solvents
Text: In this context, the solubility is indicated as the weight of the dissolved substance (the solute) per volume of the solvent (i.e. the volume of solvent added to the solute).

[2] = 20° C.; cited from earlier work

## CN1C[C@H]2c3ccccc3Oc3ccc(Cl)cc3[C@@H]2C1 (relative stereo) [Asenapine maleate, (3aRS,12bRS)-rel-5-Chloro-2,3,3a,12b-tetrahydro-2-methyl-1H-dibenz[2,3:6,7]oxepino[4,5-c]pyrrole]
[1]; solvent Acetone
  Solubility: soluble
[1]; solvent Benzylalcohol
  Solubility: soluble
[1]; solvent DMSO
  Solubility: soluble
[1]; solvent Dimethylcarbonate
  Solubility: soluble
[1]; solvent EMK
  Solubility: soluble
[1]; solvent Ethanol
  Solubility: soluble
[1]; solvent Ethyl acetate
  Solubility: soluble
[1]; solvent Ethyl formate
  Solubility: soluble
[1]; solvent Glycofurol
  Solubility: soluble
[1]; solvent Iso propanol
  Solubility: non-soluble
[1]; solvent Isopropyl acetate
  Solubility: non-soluble
[1]; solvent Isopropyl formate
  Solubility: soluble
[1]; solvent Methyl acetate
  Solubility: soluble
[1]; solvent NMP
  Solubility: soluble
[1]; solvent THF
  Solubility: soluble

## CC(C)=O [Aceton]
[2]
  Solubility in water: soluble

## O=C1CCc2ccc(OCCCCN3CCN(c4cccc(Cl)c4Cl)CC3)cc2N1 [Aripiprazole]
[1]; solvent Acetone
  Solubility: soluble
[1]; solvent Benzyl benzoate
  Solubility: soluble
[1]; solvent Benzylalcohol
  Solubility: soluble
[1]; solvent DMSO
  Solubility: soluble
[1]; solvent EMK
  Solubility: soluble
[1]; solvent Ethanol
  Solubility: non-soluble
[1]; solvent Ethyl acetate
  Solubility: soluble
[1]; solvent Ethyl formate
  Solubility: soluble
[1]; solvent Glycofurol
  Solubility: soluble
[1]; solvent Isopropyl acetate
  Solubility: non-soluble
[1]; solvent Isopropyl formate
  Solubility: soluble
[1]; solvent Methyl acetate
  Solubility: soluble
[1]; solvent NMP
  Solubility: soluble
[1]; solvent THF
  Solubility: soluble
[1]; solvent Triacetin
  Solubility: non-soluble

## CCCCOC=O [Butyl formate]
[2]
  Solubility in water: slow decomposition

## ClCCl [Dichlormethan]
[2]
  Solubility in water: 20 g/L (≈ 235 mM)

## COC(=O)OC [Dimethyl Carbonate]
[2]
  Solubility in water: 139 g/L (≈ 1540 mM)

## CNCC[C@H](Oc1cccc2ccccc12)c1cccs1 [Duloxetine HCl, (+)-(S)—N-Methyl-3-(naphthalen-1-yloxy)-3-(thiophen-2-yl)propan-1-amine]
[1]; solvent Acetone
  Solubility: non-soluble
[1]; solvent Benzyl benzoate
  Solubility: non-soluble
[1]; solvent Benzylalcohol
  Solubility: soluble
[1]; solvent DMSO
  Solubility: soluble
[1]; solvent EMK
  Solubility: non-soluble
[1]; solvent Ethanol
  Solubility: soluble
[1]; solvent Ethyl acetate
  Solubility: non-soluble
[1]; solvent Ethyl formate
  Solubility: non-soluble
[1]; solvent Glycofurol
  Solubility: soluble
[1]; solvent Methyl acetate
  Solubility: non-soluble
[1]; solvent Methyl benzoate
  Solubility: non-soluble
[1]; solvent NMP
  Solubility: soluble
[1]; solvent THF
  Solubility: soluble
[1]; solvent Triacetin
  Solubility: non-soluble

## CCOC(C)=O [Ethyl acetate]
[2]
  Solubility in water: 85.3 g/L

## CCOC=O [Ethyl formate]
[2]
  Solubility in water: 105*** g/L

## CC(C)OC=O [Isopropyl formate]
[2]
  Solubility in water: slow decomposition

## COC(C)=O [Methyl acetate]
[2]
  Solubility in water: 319 g/L

## CC(=O)C(C)C [Methylisopropylketone]
[2]
  Solubility in water: 6 g/L (≈ 69.7 mM)

## OCCOCCN1CCN(C2=Nc3ccccc3Sc3ccccc32)CC1 [Quetiapine fumarate, 2-(2-(4-dibenzo[b,f][1,4]thiazepine-11-yl-1-piperazinyl)ethoxy)ethanol]
[1]; solvent Acetone
  Solubility: non-soluble
[1]; solvent Benzylalcohol
  Solubility: soluble
[1]; solvent DMSO
  Solubility: soluble
[1]; solvent EMK
  Solubility: non-soluble
[1]; solvent Ethanol
  Solubility: non-soluble
[1]; solvent Ethyl acetate
  Solubility: non-soluble
[1]; solvent Ethyl formate
  Solubility: non-soluble
[1]; solvent Glycofurol
  Solubility: soluble
[1]; solvent Methyl acetate
  Solubility: non-soluble
[1]; solvent NMP
  Solubility: soluble
[1]; solvent THF
  Solubility: soluble
[1]; solvent Triacetin
  Solubility: non-soluble

## O=C(c1ccc(OCCN2CCCCC2)cc1)c1c(-c2ccc(O)cc2)sc2cc(O)ccc12 [Raloxifene HCl, [6-hydroxy-2-(4-hydroxyphenyl)-benzothiophen-3-yl]-[4-[2-(1-piperidyl)ethoxy]phenyl]-methanone]
[1]; solvent Acetone
  Solubility: non-soluble
[1]; solvent Benzyl formate
  Solubility: non-soluble
[1]; solvent Benzylalcohol
  Solubility: non-soluble
[1]; solvent DMSO
  Solubility: soluble
[1]; solvent Dichloromethane
  Solubility: non-soluble
[1]; solvent EMK
  Solubility: non-soluble
[1]; solvent Ethanol
  Solubility: non-soluble
[1]; solvent Ethyl acetate
  Solubility: non-soluble
[1]; solvent Ethyl formate
  Solubility: non-soluble
[1]; solvent Isopropyl acetate
  Solubility: non-soluble
[1]; solvent Isopropyl formate
  Solubility: non-soluble
[1]; solvent Methyl acetate
  Solubility: non-soluble
[1]; solvent NMP
  Solubility: soluble
[1]; solvent Propyl formate
  Solubility: non-soluble
[1]; solvent THF
  Solubility: non-soluble

## CC(C)c1nc(N(C)S(C)(=O)=O)nc(-c2ccc(F)cc2)c1/C=C/[C@@H](O)C[C@@H](O)CC(=O)O [Rosuvastatin Ca, (3R,5S,6E)-7-[4-(4-fluorophenyl)-2-(N-methylmethanesulfonamido)-6-(propan-2-yl)pyrimidin-5-yl]-3,5-dihydroxyhept-6-enoic acid]
[1]; solvent Acetone
  Solubility: soluble
[1]; solvent Benzylalcohol
  Solubility: soluble
[1]; solvent DMSO
  Solubility: soluble
[1]; solvent EMK
  Solubility: soluble
[1]; solvent Ethanol
  Solubility: non-soluble
[1]; solvent Ethyl acetate
  Solubility: soluble
[1]; solvent Ethyl formate
  Solubility: soluble
[1]; solvent Glycofurol
  Solubility: soluble
[1]; solvent Isopropyl acetate
  Solubility: non-soluble
[1]; solvent Isopropyl formate
  Solubility: non-soluble
[1]; solvent Methyl acetate
  Solubility: soluble
[1]; solvent NMP
  Solubility: soluble
[1]; solvent THF
  Solubility: soluble
[1]; solvent Triacetin
  Solubility: non-soluble

## CCCOC=O [n- Propyl formate]
[2]
  Solubility in water: 28 g/L

## CCCOC(C)=O [n-Propyl acetate]
[2]
  Solubility in water: 21.2 g/L

## CC(=O)OC(C)(C)C [tert. Butyl acetate]
[2]
  Solubility in water: insoluble
